Laboratory results from US8741949B2, “Inhibitors of carnitin-palmitoyl-tranferase-1 for the treatment and prevention of disorders caused by delipidation of neural tissue” (Meta-IQ ApS, priority 2008, dated 2014).

Experiments:
Assay type in all cases: in vivo, rat
Male Wistar rats [1] = test: Passive avoidance test (long term memory), MK-801 induced memory loss; conditions: retention test 24 h later
Description: (§1) Male Wistar rats were purchased from Taconic, Denmark. Animal weight was close to 300 g. The animals were singly housed. Food and water was available ad libitum.
In order to test long term memory, a passive avoidance apparatus was used. The passive avoidance apparatus consist of 2 compartments: a white compartment and a black compartment, which are separated by guillotine doors. There is a lamp hanging 10 cm above the white compartment and there is a lid covering the black compartment. The black compartment contains a stainless steel grid floor.
The test was performed in the lab where the rats normally live, and all the rats were present in the room all the time during the experiment. The apparatus was placed a little bit above the floor on 2 cages. The electrical current strength was adjusted to 0.36 mA and the duration was 5 sec. […] All the rats are weighted one day before the experiment, the concentration of MK-801 per mean body weight is calculated and the dilutions are prepared
The rats are given subcutaneous injection of either vehicle (n=4), 0.1 mg/kg MK-801 (n=8) or 0.1 mg/kg MK-801 and etomoxir 1 mg/kg (1 mg/ml etomoxir ester dilution in olive oil, n=10) 1 hour before the training (to avoid the MK-801 induced hyperactivity). […] After 20 sec the doors are lifted and the time to enter the black compartment is measured. […]

Male Wistar rats [2] = test: Y-maze short term memory test (spontaneous alternation), MK-801 induced memory loss
Description: as §1
Spontaneous alternation. A Y-maze was used to assess (without food deprivation or other aversive procedures) the normal navigation behaviors of rodents. All arm entries are sequentially scored so that the total number of arm entries, as well as the sequence of entries, are recorded. Data are analyzed to determine the number of arm entries without repetition.
On the day of testing, the rats are given subcutaneous injection of either vehicle (n=9), 0.1 mg/kg MK-801 (n=8) or 0.1 mg/kg MK-801 (also known as Dizocilpine) and the CPT-1 inhibitor Etomoxir 1 mg/kg (1 mg/ml etomoxir ester dilution in olive oil, n=5) 1 hour before the testing (to avoid the MK-801 induced hyperactivity).

Male Wistar rats [3] = test: Chronic mild stress (CMS) model of depression, sucrose consumption test; conditions: 4 mg/kg etomoxir in oil i.p. daily
Description: For a prolonged period rats are submitted to a succession of mild stressors. Consequently rats enter a depression-like state (anhedoina), however, upon concomitant treatment with antidepressants a fraction of rats recovers over time (Jayatissa et al., 2006). Time point of onset of antidepressant action correlates well to therapeutic action in the clinic and also drug efficacy, measured as a reduction in number of rats resistant to drug treatment, is addressed in the model. Male Wistar rats were purchased from Taconic, Denmark. Animal weight was close to 200 g when adaptation for sucrose consumption was initiated, and approximately 350 g at the start of stress regime. The animals were singly housed, except when grouping was applied as a stress parameter. Food and water was available ad libitum except when food or/and water deprivation was applied as a stress parameter. The standard 12-h light/dark cycle was only changed in course of stress regime. The animals were first trained to consume a palatable sucrose solution (1.5%). The training lasted 5 weeks. In this period the sucrose test was made twice a week during the first 3 weeks and once a week during the last two weeks. […] Percentage well being is calculated as follows: Test=Average Sucrose consumption animals in test group Control=Average Sucrose used animal control group Percentage well being=(Test/control)×100%

SMILES | animals with restored long term memory (Male Wistar rats [1]; one subcutaneous injection, etomoxir 1 mg/kg with 0.1 mg/kg MK-801, 1 hour before training, n=10, FIG. 3) [%] | Y-maze scores of the animals with nearly perfect memory (Male Wistar rats [2]; Etomoxir 1 mg/kg s.c. with 0.1 mg/kg MK-801, 1 hour before testing) | animals with nearly perfect memory (Male Wistar rats [2]; Etomoxir 1 mg/kg s.c. with 0.1 mg/kg MK-801, 1 hour before testing, n=5) | effect on the induced loss of short term memory (Male Wistar rats [2]; one subcutaneous injection, Etomoxir 1 mg/kg with 0.1 mg/kg MK-801, 1 hour before testing, FIG. 2) | animals responding to the treatment (at least 90% of pre-stress sucrose consumption) (Male Wistar rats [3]; stressed rats n=20, FIG. 6) | time of treatment until animals responded like normal non-depressed animals (percentage well being, sucrose consumption) (Male Wistar rats [3]; stressed rats, earliest time point measured, FIG. 5) [week] | animals with measurable long term memory (Male Wistar rats [1]; 0.1 mg/kg MK-801 s.c. 1 hour before training, n=8) | highest Y-maze score in the group (Male Wistar rats [2]; 0.1 mg/kg MK-801 + vehicle s.c., 1 hour before testing, n=8) [%]
CCOC(=O)C1(CCCCCCOc2ccc(Cl)cc2)CO1 (centres unmarked) [Etomoxir, 2-(6-(4-chlorophenoxy)hexyl)oxirane-2-carboxylic acid ethyl ester] | 40 | 92-100% | Sixty | restore the loss of short term memory | about 70% | ≤ 1 | – | –
C[C@]12N[C@H](Cc3ccccc31)c1ccccc12 [MK-801] | – | – | – | – | – | – | None | 66
